3 compounds from the NIST ThermoML archive (doi:10.1016/j.fluid.2016.08.035) can be followed below.

In general, viscosity refers to the resistance of a fluid to flow. The speed of sound is the propagation velocity of pressure waves in the medium. As usually defined, the mass density is mass per unit of volume.

Data set [1] can be described thus: xn = mol fraction of the nth substance listed. The settings on record: 101 kPa, Liquid, x2 = 0; for viscosity: Falling or rolling sphere viscometry; for speed of sound: Sing-around technique in a fixed-path interferometer; for mass density: Vibrating tube method.
Data set [2] is described as follows: molar heat capacity at constant pressure; xn = mol fraction of the nth substance listed. The settings on record: 101 kPa, Liquid, DSC, x2 = 0.

SMILES strings stand for the structures. Numbers after ± are expanded uncertainties.

Regarding `CCCCCCCCCC` [decane] + CC12CCC(CC1)C(C)(C)O2, the viscosity in data set [1] (278.15 K) worked out at 1.19 ± 0.04 mPa·s; in data set [1] (298.15 K), 0.86 ± 0.04 mPa·s; in data set [1] (318.15 K) it was 0.66 ± 0.04 mPa·s; in data set [1] (338.15 K), 0.54 ± 0.04 mPa·s. In addition, the speed of sound was 1315 ± 1.5 m/s in data set [1] (278.15 K), 1234.7 ± 1.5 m/s in data set [1] (298.15 K), 1156.6 ± 1.5 m/s in data set [1] (318.15 K) and 1080.5 ± 1.5 m/s in data set [1] (338.15 K). The mass density in data set [1] (278.15 K) is recorded as 741.18 ± 0.24 kg/m3; in data set [1] (298.15 K) it was 726.11 ± 0.24 kg/m3; in data set [1] (318.15 K) it was 710.89 ± 0.24 kg/m3; in data set [1] (338.15 K), 695.42 ± 0.25 kg/m3. For the same compound, the “molar heat capacity at constant pressure” value in data set [2] (278.15 K) is 305.94 ± 12 J/K/mol; in data set [2] (298.15 K), 314.4 ± 12 J/K/mol; in data set [2] (318.15 K), 323.94 ± 13 J/K/mol; in data set [2] (338.15 K), 334.32 ± 13 J/K/mol.
For the compound `CCCCCC` [hexane] + CC12CCC(CC1)C(C)(C)O2, the viscosity stood at 0.39 ± 0.04 mPa·s in data set [1] (278.15 K), 0.34 ± 0.04 mPa·s in data set [1] (298.15 K), 0.3 ± 0.04 mPa·s in data set [1] (318.15 K) and 0.26 ± 0.04 mPa·s in data set [1] (338.15 K). The speed of sound in data set [1] (278.15 K) came out at 1169 ± 1.5 m/s; in data set [1] (298.15 K), 1078.2 ± 1.5 m/s; in data set [1] (318.15 K), 988.59 ± 1.5 m/s; in data set [1] (338.15 K) it was 901.09 ± 1.5 m/s. The mass density in data set [1] (278.15 K) is given as 673.1 ± 0.25 kg/m3; in data set [1] (298.15 K), 655.3 ± 0.25 kg/m3; in data set [1] (318.15 K), 636.71 ± 0.25 kg/m3; in data set [1] (338.15 K), 617.44 ± 0.26 kg/m3. In addition, the “molar heat capacity at constant pressure” value was determined as 188.32 ± 7.3 J/K/mol in data set [2] (278.15 K), 194.96 ± 7.5 J/K/mol in data set [2] (298.15 K), 201.96 ± 7.8 J/K/mol in data set [2] (318.15 K) and 208.99 ± 8.1 J/K/mol in data set [2] (338.15 K).
For `CCCCCCCC` [octane] + CC12CCC(CC1)C(C)(C)O2, the viscosity in data set [1] (278.15 K) was 0.68 ± 0.04 mPa·s; in data set [1] (298.15 K), 0.53 ± 0.04 mPa·s; in data set [1] (318.15 K), 0.43 ± 0.04 mPa·s; in data set [1] (338.15 K), 0.37 ± 0.04 mPa·s. Besides, the speed of sound is 1256.7 ± 1.3 m/s in data set [1] (278.15 K), 1172.7 ± 1.2 m/s in data set [1] (298.15 K), 1090.7 ± 1.2 m/s in data set [1] (318.15 K) and 1010.7 ± 1.2 m/s in data set [1] (338.15 K). For the same compound, the mass density worked out at 714.55 ± 0.17 kg/m3 in data set [1] (278.15 K), 698.51 ± 0.17 kg/m3 in data set [1] (298.15 K), 682.19 ± 0.18 kg/m3 in data set [1] (318.15 K) and 665.43 ± 0.18 kg/m3 in data set [1] (338.15 K). Besides, the “molar heat capacity at constant pressure” value is reported as 246.17 ± 9.5 J/K/mol in data set [2] (278.15 K), 253.89 ± 9.8 J/K/mol in data set [2] (298.15 K), 262.16 ± 10 J/K/mol in data set [2] (318.15 K) and 270.96 ± 10 J/K/mol in data set [2] (338.15 K).
